Data: PubChem BioAssay (NCI)
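96-well plates; 48 h exposure; 5 concentrations. Endpoints by linear interpolation between flanking doses. Not reached: highest tested concentration assigned. GI50 = concentration required for 50% inhibition of growth. TGI: concentration producing complete growth inhibition.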

Key:
Assay in all cases: NCI tumour cell line growth inhibition, 48 h
UACC-257 melanoma = tested on: UACC-257 melanoma
COLO 205 colon = tested on: COLO 205 colon
SF-268 CNS = tested on: SF-268 CNS
T-47D breast = tested on: T-47D breast
BT-549 breast = tested on: BT-549 breast
HT29 colon = tested on: HT29 colon
IGROV1 ovarian = tested on: IGROV1 ovarian
786-0 renal = tested on: 786-0 renal
A549 NSCLC = tested on: A549 NSCLC
SK-MEL-28 melanoma = tested on: SK-MEL-28 melanoma
ACHN renal = tested on: ACHN renal
SR leukemia = tested on: SR leukemia
HS 578T breast = tested on: HS 578T breast
UACC-62 melanoma = tested on: UACC-62 melanoma
NCI-H226 lung = tested on: NCI-H226 lung
NCI-H522 lung = tested on: NCI-H522 lung
HL-60(TB) leukemia = tested on: HL-60(TB) leukemia
TK-10 renal = tested on: TK-10 renal
UO-31 renal = tested on: UO-31 renal
LOX IMVI melanoma = tested on: LOX IMVI melanoma
OVCAR-8 ovarian = tested on: OVCAR-8 ovarian
DU-145 prostate = tested on: DU-145 prostate
KM12 colon = tested on: KM12 colon
CAKI-1 renal = tested on: CAKI-1 renal
MOLT-4 leukemia = tested on: MOLT-4 leukemia
HCC-2998 colon = tested on: HCC-2998 colon
CCRF-CEM leukemia = tested on: CCRF-CEM leukemia
HCT-116 colon = tested on: HCT-116 colon
HOP-92 NSCLC = tested on: HOP-92 NSCLC
PC-3 prostate = tested on: PC-3 prostate
SF-295 CNS = tested on: SF-295 CNS
RXF 393 renal = tested on: RXF 393 renal
EKVX NSCLC = tested on: EKVX NSCLC
RPMI-8226 leukemia = tested on: RPMI-8226 leukemia
SN12C renal = tested on: SN12C renal
SK-MEL-2 melanoma = tested on: SK-MEL-2 melanoma
MDA-MB-231 breast = tested on: MDA-MB-231 breast
NCI-H460 lung = tested on: NCI-H460 lung
M14 melanoma = tested on: M14 melanoma
OVCAR-3 ovarian = tested on: OVCAR-3 ovarian
OVCAR-5 ovarian = tested on: OVCAR-5 ovarian
MALME-3M melanoma = tested on: MALME-3M melanoma
SW-620 colon = tested on: SW-620 colon
SF-539 CNS = tested on: SF-539 CNS
HOP-62 NSCLC = tested on: HOP-62 NSCLC
OVCAR-4 ovarian = tested on: OVCAR-4 ovarian
U251 CNS = tested on: U251 CNS
NCI/ADR-RES ovarian = tested on: NCI/ADR-RES ovarian
HCT-15 colon = tested on: HCT-15 colon
SNB-19 CNS = tested on: SNB-19 CNS
SNB-75 CNS = tested on: SNB-75 CNS
K-562 leukemia = tested on: K-562 leukemia
MDA-MB-435 = tested on: MDA-MB-435
A498 renal = tested on: A498 renal
NCI-H23 lung = tested on: NCI-H23 lung
SK-MEL-5 melanoma = tested on: SK-MEL-5 melanoma
MCF7 breast = tested on: MCF7 breast
SK-OV-3 ovarian = tested on: SK-OV-3 ovarian

SMILES: CN(C)CCNC(=O)c1cccc2nc3c(C(=O)NCCN(C)C)cccc3nc12
- TGI (UACC-257 melanoma): 4.08 µM
- TGI (COLO 205 colon): 1.87 µM
- TGI (SF-268 CNS): 4.84 µM
- TGI (T-47D breast): 34.5 µM
- TGI (BT-549 breast): 15.9 µM
- TGI (HT29 colon): 3.49 µM
- TGI (IGROV1 ovarian): > 23.3 µM
- TGI (786-0 renal): 9.88 µM
- TGI (A549 NSCLC): 6.01 µM
- TGI (SK-MEL-28 melanoma): 4.64 µM
- TGI (ACHN renal): 22.3 µM
- TGI (SR leukemia): 3.6 µM
- TGI (HS 578T breast): 7.73 µM
- TGI (UACC-62 melanoma): 9.6 µM
- TGI (NCI-H226 lung): 5.66 µM
- TGI (NCI-H522 lung): 1.81 µM
- TGI (HL-60(TB) leukemia): 3.96 µM
- TGI (TK-10 renal): 6.81 µM
- TGI (UO-31 renal): 34.1 µM
- TGI (LOX IMVI melanoma): 1.49 µM
- TGI (OVCAR-8 ovarian): 4.67 µM
- TGI (DU-145 prostate): 12.8 µM
- TGI (KM12 colon): 8.82 µM
- TGI (CAKI-1 renal): > 100 µM
- TGI (MOLT-4 leukemia): 14.7 µM
- TGI (HCC-2998 colon): 4.12 µM
- TGI (CCRF-CEM leukemia): 12.7 µM
- TGI (HCT-116 colon): 13.4 µM
- TGI (HOP-92 NSCLC): 7.83 µM
- TGI (PC-3 prostate): 2.67 µM
- TGI (SF-295 CNS): 6.46 µM
- TGI (RXF 393 renal): 4.06 µM
- TGI (EKVX NSCLC): 3.76 µM
- TGI (RPMI-8226 leukemia): > 23.6 µM
- TGI (SN12C renal): 5.58 µM
- TGI (SK-MEL-2 melanoma): 4.16 µM
- TGI (MDA-MB-231 breast): 3.4 µM
- TGI (NCI-H460 lung): 7.91 µM
- TGI (M14 melanoma): 3.13 µM
- TGI (OVCAR-3 ovarian): 8.67 µM
- TGI (OVCAR-5 ovarian): 13.6 µM
- TGI (MALME-3M melanoma): 3.59 µM
- TGI (SW-620 colon): 12.1 µM
- TGI (SF-539 CNS): 6.64 µM
- TGI (HOP-62 NSCLC): 5.12 µM
- TGI (OVCAR-4 ovarian): 2.24 µM
- TGI (U251 CNS): 11.2 µM
- TGI (NCI/ADR-RES ovarian): > 58.1 µM
- TGI (HCT-15 colon): 16.5 µM
- TGI (SNB-19 CNS): 21.6 µM
- TGI (SNB-75 CNS): 8.12 µM
- TGI (K-562 leukemia): 12.5 µM
- TGI (MDA-MB-435): 2.59 µM
- TGI (A498 renal): 4.61 µM
- TGI (NCI-H23 lung): 5.76 µM
- TGI (SK-MEL-5 melanoma): 3.02 µM

SMILES: CN(C)CCCC1(c2ccc(F)cc2)OCc2cc(-c3cc4ccccc4s3)ccc21 (centres undefined)
- GI50 (UACC-257 melanoma): 1.8 µM
- TGI (UACC-257 melanoma): 3.27 µM
- GI50 (COLO 205 colon): 1.34 µM
- TGI (COLO 205 colon): 2.74 µM
- GI50 (SF-268 CNS): 1.65 µM
- TGI (SF-268 CNS): 3.29 µM
- GI50 (T-47D breast): 2.04 µM
- TGI (T-47D breast): 3.75 µM
- GI50 (BT-549 breast): 2.03 µM
- TGI (BT-549 breast): 3.89 µM
- GI50 (HT29 colon): 1.67 µM
- TGI (HT29 colon): 3.11 µM
- GI50 (IGROV1 ovarian): 1.14 µM
- TGI (IGROV1 ovarian): 2.46 µM
- GI50 (786-0 renal): 1.76 µM
- TGI (786-0 renal): 3.37 µM
- GI50 (A549 NSCLC): 1.73 µM
- TGI (A549 NSCLC): 3.19 µM
- GI50 (SK-MEL-28 melanoma): 1.81 µM
- TGI (SK-MEL-28 melanoma): 3.22 µM
- GI50 (ACHN renal): 1.66 µM
- TGI (ACHN renal): 3.02 µM
- GI50 (HS 578T breast): 1.8 µM
- TGI (HS 578T breast): 3.96 µM
- GI50 (UACC-62 melanoma): 1.79 µM
- TGI (UACC-62 melanoma): 3.24 µM
- GI50 (NCI-H522 lung): 1.7 µM
- TGI (NCI-H522 lung): 3.28 µM
- GI50 (HL-60(TB) leukemia): 1.76 µM
- TGI (HL-60(TB) leukemia): 3.39 µM
- GI50 (TK-10 renal): 1.7 µM
- TGI (TK-10 renal): 3.13 µM
- GI50 (UO-31 renal): 1.24 µM
- TGI (UO-31 renal): 2.49 µM
- GI50 (LOX IMVI melanoma): 1.64 µM
- TGI (LOX IMVI melanoma): 3.13 µM
- GI50 (OVCAR-8 ovarian): 1.72 µM
- TGI (OVCAR-8 ovarian): 3.25 µM
- GI50 (DU-145 prostate): 1.79 µM
- TGI (DU-145 prostate): 3.24 µM
- GI50 (KM12 colon): 1.74 µM
- TGI (KM12 colon): 3.45 µM
- GI50 (CAKI-1 renal): 1.29 µM
- TGI (CAKI-1 renal): 2.59 µM
- GI50 (MOLT-4 leukemia): 1.52 µM
- TGI (MOLT-4 leukemia): 3.08 µM
- GI50 (HCC-2998 colon): 1.67 µM
- TGI (HCC-2998 colon): 3.11 µM
- GI50 (HCT-116 colon): 1.67 µM
- TGI (HCT-116 colon): 3.22 µM
- GI50 (MCF7 breast): 1.75 µM
- TGI (MCF7 breast): 3.47 µM
- GI50 (HOP-92 NSCLC): 1.33 µM
- TGI (HOP-92 NSCLC): 2.95 µM
- GI50 (PC-3 prostate): 1.5 µM
- TGI (PC-3 prostate): 2.99 µM
- GI50 (SF-295 CNS): 1.91 µM
- TGI (SF-295 CNS): 3.6 µM
- GI50 (RXF 393 renal): 1.42 µM
- TGI (RXF 393 renal): 2.86 µM
- GI50 (EKVX NSCLC): 1.66 µM
- TGI (EKVX NSCLC): 3.07 µM
- GI50 (SN12C renal): 1.57 µM
- TGI (SN12C renal): 2.94 µM
- GI50 (SK-MEL-2 melanoma): 1.8 µM
- TGI (SK-MEL-2 melanoma): 3.46 µM
- GI50 (MDA-MB-231 breast): 1.52 µM
- TGI (MDA-MB-231 breast): 2.95 µM
- GI50 (NCI-H460 lung): 1.93 µM
- TGI (NCI-H460 lung): 3.67 µM
- GI50 (M14 melanoma): 1.59 µM
- TGI (M14 melanoma): 3.13 µM
- GI50 (OVCAR-3 ovarian): 1.67 µM
- TGI (OVCAR-3 ovarian): 3.19 µM
- GI50 (OVCAR-5 ovarian): 1.58 µM
- TGI (OVCAR-5 ovarian): 2.92 µM
- GI50 (MALME-3M melanoma): 1.54 µM
- TGI (MALME-3M melanoma): 2.98 µM
- GI50 (SW-620 colon): 1.74 µM
- TGI (SW-620 colon): 3.4 µM
- GI50 (SF-539 CNS): 1.7 µM
- TGI (SF-539 CNS): 3.09 µM
- GI50 (HOP-62 NSCLC): 1.6 µM
- TGI (HOP-62 NSCLC): 3 µM
- GI50 (OVCAR-4 ovarian): 1.94 µM
- TGI (OVCAR-4 ovarian): 3.52 µM
- GI50 (U251 CNS): 1.63 µM
- TGI (U251 CNS): 3.02 µM
- GI50 (NCI/ADR-RES ovarian): 1.74 µM
- TGI (NCI/ADR-RES ovarian): 3.25 µM
- GI50 (HCT-15 colon): 1.69 µM
- TGI (HCT-15 colon): 3.13 µM
- GI50 (SNB-19 CNS): 1.72 µM
- TGI (SNB-19 CNS): 3.13 µM
- GI50 (SNB-75 CNS): 1.24 µM
- TGI (SNB-75 CNS): 2.58 µM
- GI50 (K-562 leukemia): 1.68 µM
- TGI (K-562 leukemia): 3.3 µM
- GI50 (MDA-MB-435): 1.83 µM
- TGI (MDA-MB-435): 3.32 µM
- GI50 (A498 renal): 1.53 µM
- TGI (A498 renal): 2.92 µM
- GI50 (NCI-H23 lung): 1.76 µM
- TGI (NCI-H23 lung): 3.34 µM
- GI50 (SK-OV-3 ovarian): 1.66 µM
- TGI (SK-OV-3 ovarian): 3.04 µM
- GI50 (SK-MEL-5 melanoma): 1.69 µM
- TGI (SK-MEL-5 melanoma): 3.05 µM
